This is an account of results in US20100104580A1, “Altered Immunogenic Landscape in HIV-1 Envelope Proteins” (priority 2008, published 2010).

The test system of series [1] is interaction between gp120 and four-domain soluble CD4 (4dCD4). The settings on record: cited from earlier work.
Series [2] deals with interaction between gp120 and 17b. The settings on record: cited from earlier work.
The target in series [3] is T1, gp120YU2 (Human immunodeficiency virus type 1 group M subtype B, UniProt P35961).
T1 construct: for HIV-1 YU2 gp 120 envelope protein; made in house; host or cells: Drosophila S2 cells
The format is binding, HIV-1. The settings on record: HNG-156 at the concentrations tested (0.6 μM elsewhere in the source).
Method: b12 binding to gp120YU2 was assayed by SPR using a Biacore 3000 instrument. […] Buffer (PBS+0.005% Tween-20) injection and control surface responses were subtracted from the injection of gp120 over b12 and binding sensorgrams were obtained.
Inhibition curves were generated from response at the end of association. b12 was injected at 100 ul/min with 2.5 min. association and 2 min. dissociation and binding curves were generated from responses at the 100th second of dissociation.
100 ng gp120YU2 was adsorbed to wells. […] Bound antibody was detected with species specific secondary antibody-HRP, and read with OPD assay at 450 nm.

In series [4] the test system is gp 120 from two other HIV-1 strains. Description: Affinity for gp120 of other strains. The format is binding. The text has this:
HIV-1YU2gp120 was produced as described previously in Drosophila S2 cells (Biorn et al., 2004, Biochem. 43:1928-1938; Pancera et al., 2005, J Virol. 79:9954-9969). Cells were spun down and supernatant sterile filtered. Supernatant was purified over an F105-antibody column (NHS-activated Sepharose, Amersham; F 105 antibody coupled according to manufacturer's instructions). […] Supernatant from the hollow fiber bioreactor was purified with an SP-column and bound fractions were then run over a Q-column. Unbound material was concentrated and analysed by SDS-PAGE. The gp120 proteins from HIV-1 SF162 and HIV-192UG037-08 were used in previous inhibitor binding studies (Cocklin et al., 2007, J Virol. 81:3645-3648); HIV-1SF162 gp120 was obtained through NIH AIDS Research and Reference Reagent Program from DAIDS and NIAID, while HIV-192UG037-08 gp120 was a gift as reported in Cocklin et al. (2007, J Virol. 81:3645-3648). The following monoclonal antibodies were obtained through the NIH AIDS Research and Reference Reagent Program: 2G12 from Dr Hermann Katinger; F105 from Dr Marshall Posner and Dr Lisa Cavacini; b12 from Dr Dennis Burton and Carlos Barbas.

For series [5], the target named is gp120 binding to both host cell receptors (CD4 and CCR5) (Human immunodeficiency virus type 1 group M subtype B, UniProt P35961). As to the kind of experiment: Dual antagonism of gp120 binding to host cell receptors. Also on record: species or system HIV-1. The settings on record: inhibiting gp120 binding to CD4 and CCR5.
Series [6] deals with M-tropic and T-tropic strains of HIV-1, SIV, FIV. The settings on record: cited from earlier work.
Series [7] deals with SHIV89.6P. The settings on record: cited from earlier work.
For series [8], the system named is HIV-1 BaL. The settings on record: recombinant CV-N; cited from earlier work.
The conditions of series [9]: female macaques; cited from earlier work.

As to `CC[C@H](C)[C@H](NC(=O)[C@@H](N)CCCNC(=N)N)C(=O)N[C@@H](CC(N)=O)C(=O)N[C@@H](CC(N)=O)C(=O)N[C@H](C(=O)N1CCC[C@H]1C(=O)N[C@@H](Cc1c[nH]c2ccccc12)C(=O)N[C@@H](CO)C(=O)N[C@@H](CCC(=O)O)C(=O)N[C@@H](C)C(=O)N[C@@H](CCSC)C(=O)N[C@@H](CCSC)C(=O)O)[C@@H](C)CC` [12p1], the “inhibition of the gp120-4dCD4 interaction” value in [1] is “found to inhibit”. Also, the “inhibition of the gp120-17b interaction” value in series [2] is given as “found to inhibit”.
`CC[C@H](C)[C@H](NC(=O)[C@@H](N)CCCNC(=N)N)C(=O)N[C@@H](CC(N)=O)C(=O)N[C@@H](CC(N)=O)C(=O)N[C@H](C(=O)N1C[C@@H](n2cc([C]34[CH]5[CH]6[CH]7[CH]3[Fe]6754389%10[CH]4[CH]3[CH]8[CH]9[CH]4%10)nn2)C[C@H]1C(=O)N[C@@H](Cc1c[nH]c2ccccc12)C(=O)N[C@@H](CO)C(=O)N[C@@H](CCC(=O)O)C(=O)N[C@@H](C)C(=O)N[C@@H](CCSC)C(=O)N[C@@H](CCSC)C(N)=O)[C@@H](C)CC` (stereo partly drawn) [HNG-156, RINNIXWSEAMM, where residue 6 is (2s, 4s)-4-(4-ferrocenyl-1H-1, 2, 3-triazol-1-yl) pyrrolidine-2-carboxylic acid]: in series [3], the “mAb F105 binding inhibition” value is recorded as “inhibited to near completion”. For the same molecule, in series [4], the “affinity for gp 120 from two other HIV-1 strains” value is listed as “similarly high affinity”. Further, the dual antagonism function entry in series [5] is recorded as “dual antagonism function”.
Regarding `CC[C@H](C)[C@H](NC(=O)[C@@H](N)CCCNC(=N)N)C(=O)N[C@@H](CC(N)=O)C(=O)N[C@@H](CC(N)=O)C(=O)N[C@H](C(=O)N1C[C@@H](n2cc(-c3cccc4ccccc34)nn2)C[C@H]1C(=O)N[C@@H](Cc1c[nH]c2ccccc12)C(=O)N[C@@H](CO)C(=O)N[C@@H](CCC(=O)O)C(=O)N[C@@H](C)C(=O)N[C@@H](CCSC)C(=O)N[C@@H](CCSC)C(N)=O)[C@@H](C)CC` [HNG-125], the dual antagonism function entry in [5] is reported as “dual antagonism function”.

B1: CV-N: 11 kD protein originally isolated from the cyanobacteria Nostoc ellipsosporum (protein)
chain: LGKFSQTCYNSAIQGSVLTSTCERTNGGYNTSSIDLNSVIENVDGSLKWQPSNFIETCRNTQLAGSSELAAECKTRAQQFVSTKINLDDHIANIDGTLKYE
As to B1, in [6], the “inactivation of virus strains” value was “inactivates a broad range of M-tropic and T-tropic strains”. Further, the “protection against virus challenge” value in series [7] (gel formulations applied rectally, male macaques) is given as “protected against challenge”. In addition, the clinically adverse effects in series [7] (rectal and vaginal macaque in vivo assays) is listed as “no clinically adverse effects”. For the same molecule, in series [8], the “cytotoxic effects in ectocervical explants” value is “without cytotoxic effects” and the “infection of human ectocervical explants” value was “blocks HIV-1 BaL infection”. The “in vivo efficacy, vaginal challenge” value in series [9] is reported as “In vivo efficacy has also be shown”.
